{
  "source": "patent US20180360769A1",
  "about": "“SYSTEMS AND METHODS FOR TRANSDERMAL DRUG DELIVERY” (Elliptical Therapeutics, LLC, priority 2015, published 2018)",
  "key": {"rabbit skin": {"test_system": "rabbit skin", "conditions": "in vivo"}, "[1]": {"conditions": "human subjects, cited from earlier work"}, "[2]": {"conditions": "animal models; cited from earlier work"}, "[3]": {"test_system": "moderate to severe post-operative pain", "conditions": "cited from earlier work"}, "[4]": {"conditions": "in vivo; cited from earlier work"}},
  "data": [
    {"smiles": "CCCCCCCCCCCCOS(=O)(=O)[O-].[Na+]", "note": "[SDS, 5%, sodium dodecyl sulfate]", "values": [
      {"measurement": "Overall Edema Score", "setting": "rabbit skin; New Zealand", "value": 2.0},
      {"measurement": "Overall Erythema Score", "setting": "rabbit skin; New Zealand", "value": 1.0}
    ]},
    {"smiles": "O=C(c1ccccc1)c1ccc2n1CC[C@@H]2C(=O)O", "note": "[(s)-ketorolac]", "values": [
      {"measurement": "plasma concentrations compared with (r)-ketorolac", "setting": "[1]; after oral administration of racemic ketorolac, all sample times", "value": "lower"},
      {"measurement": "clearance compared with (r)-ketorolac", "setting": "[1]; single oral solution dose", "value": "greater"},
      {"measurement": "plasma half-life compared with (r)-ketorolac", "setting": "[1]; single oral solution dose", "value": "shorter"},
      {"measurement": "potency compared with the (r)-enantiomer", "setting": "[2]", "value": "approximately twice as potent"},
      {"measurement": "skin irritation (erythema and edema), in words", "setting": "rabbit skin", "value": "non-irritant"}
    ]},
    {"smiles": "O=C(c1ccccc1)c1ccc2n1CCC2C(=O)O", "note": "(racemic) [Toradol®, Ketorolac tromethamine]", "values": [
      {"measurement": "adverse effects", "setting": "[3]; administered orally for extended periods of time", "value": "gastric irritation and ulcers have been observed"},
      {"measurement": "efficacy compared with morphine, meperidine, or pentazocine", "setting": "[3]; single-dose, moderate to severe post-operative pain", "value": "more efficacious"}
    ]},
    {"smiles": "O=C(c1ccccc1)c1ccc2n1CCC2C(=O)O", "note": "(racemic) [racemic ketorolac, ketorolac]", "values": [
      {"measurement": "biological half-life", "setting": "[4]", "value": "4-6 hours"}
    ]}
  ]
}
